This note sets out measurements from patent US20050004000A1, “Oral absorbed drugs” (priority 2001, published 2005).

The test system of one data set is F10.9 melanoma cell line. Kind of data set: Inhibition of proliferation of cancer cells in vitro, crystal violet staining. Type of data set: cell-based. The settings on record: F10.9 melanoma cells, 96 hours, crystal violet staining (FIG. 2); read-out: IC50 (the concentration at which cell growth is inhibited by 50%). The method, then: (§1) The efficacy of native Dox and FMS-Dox on the inhibition of proliferation of cancer cells was tested in vitro with F10.9 melanoma cell line. On day (−1) cells, were seeded in a 24-well plate (5×10^3 cells/ml/well). On day (0), cells were incubated with Dox and FMS-Dox at logarithmic dilutions from 100 μM to 0.001 μM. Survival of cells at 96 hours was determined, using the crystal violet staining method. Optical density (OD) was measured at 620 nm in an ELISA reader. The OD reading was correlated to % viable cells. When the cells were untreated the absorbance was at a maximum. IC50 (the concentration at which cell growth is inhibited by 50%) was determined. The results in FIG. 2 show IC50 values of 0.03 μM and 0.09 μM for native Dox and FMS-Dox, respectively. […] The was confirmed by HPLC analysis whereby the compound found in the growing cell medium after 96 hr corresponded to native doxorubicin.

Data set [1] in a line: HPLC analysis of growing cell medium (cleavage of Fms-Dox). Type of data set: in vitro ADME. To be noted: growing cell medium after 96 hr. The method, then: as §1

For the substance Fms-doxorubicin, the IC50 with F10.9 melanoma cell line was determined as 90 nM. Also, in data set [1], the “cleavage in the cell medium (HPLC analysis)” value is listed as “full recovery of the native doxorubicin”.
